Measured values taken from patent publication US6656699B2, “Methods and compositions for glycosidase assays” (Reddy US Therapeutics, Inc., priority 2000, dated 2003).

Key:
[1] = molecular target: T1, heparanase (Pedobacter heparinus, UniProt Q59289); test: Heparanase assay: biotin-HS digestion with heparanase with or without excess unlabeled HS; type: biochemical, bacterial; settings: 50 fold (5 μg) excess of unlabeled HS
T1 construct: purchased Seikagaku
Protocol: Biotin-labeled HS from Example 1 was digested with heparanase, and the reaction containing undegraded and degraded HS was bound to in a biotin-binding plate (FIG. 1). Streptavidin, conjugated with an enzyme, was added to the binding plate. Quantitation of the color reaction measured the amount of available biotin binding sites. A decrease in color from a known amount reflects HS digestion by heparanase.
A lyophilized powder of heparanase (Heparanase III obtained from Seikagaku) containing 0.1 units of enzymatic activity was hydrated in 100 μl of Reaction Buffer (3.33 mM calcium acetate pH 7.0, containing 0.1 mg/ml BSA). This solution was then diluted to a working concentration of heparanase solution (0.01 micro-units to 1 milli-unit) in Reaction Buffer. Enzyme activity was defined by the manufacturer of the heparanase (Seikagaku) as follows: one unit of enzyme activity is defined as amount required to generate 1 μmole of hexuronic acid per minute. Biotin-HS was diluted to a desired concentration in Reaction Buffer.
To determine heparanase activity, 10 μl of heparanase solution was mixed with 200 μl of the biotin-HS substrate in a 96 well plate. The reaction was incubated at 43° C. for 1 hour. […] Color development in the wells was assessed by measuring the optical density at 450 nm in a microplate reader (Labsystems, Muliskan Ascent model). […]

[2] = test system: biotin-HS; test: Digestion of biotin-HS by enzymes, detected with streptavidin-enzyme conjugate; type: biochemical; settings: protease in place of heparanase; FIG. 6

T1 sequence (Q59289 25-659): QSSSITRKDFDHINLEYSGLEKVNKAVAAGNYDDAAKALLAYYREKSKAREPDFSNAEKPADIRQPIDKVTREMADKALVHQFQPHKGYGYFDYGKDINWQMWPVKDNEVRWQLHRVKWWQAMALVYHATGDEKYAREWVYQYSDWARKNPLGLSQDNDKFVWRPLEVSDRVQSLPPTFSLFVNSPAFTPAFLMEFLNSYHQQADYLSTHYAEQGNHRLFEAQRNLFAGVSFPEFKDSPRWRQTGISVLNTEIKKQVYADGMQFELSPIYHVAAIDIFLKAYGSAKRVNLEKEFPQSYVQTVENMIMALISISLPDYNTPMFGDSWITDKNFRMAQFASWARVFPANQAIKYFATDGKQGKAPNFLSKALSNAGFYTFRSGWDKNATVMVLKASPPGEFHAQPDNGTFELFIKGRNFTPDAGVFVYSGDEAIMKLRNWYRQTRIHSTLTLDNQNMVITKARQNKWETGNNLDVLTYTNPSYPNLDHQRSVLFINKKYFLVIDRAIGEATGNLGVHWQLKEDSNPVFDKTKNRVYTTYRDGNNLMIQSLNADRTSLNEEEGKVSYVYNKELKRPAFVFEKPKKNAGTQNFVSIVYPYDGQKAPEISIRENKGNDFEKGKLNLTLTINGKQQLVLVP

Substance	Inhibition of heparanase activity toward biotin-HS [1]	Activity leading to a decrease in the amount of biotin-HS detected by the assay [2]
heparan sulfate [unlabeled HS]	approximately 60%	–
trypsin	–	Neither protease tested (MMP or trypsin) demonstrated any activity
